From patent publication US6803195B1, “Facile detection of cancer and cancer risk based on level of coordination between alleles” (Ramot At Tel-Aviv University Ltd., priority 1999, dated 2004) come the findings set out here.

“And” between values parts separate entries of the source, which are not always exact repeats. Equal entries are not always repeated.

Assay [1] deals with CAD samples (hematological malignancy patients at diagnosis). The assay is described as follows: FISH replication assay, cultures of hematological malignancy patients (CAD) with chromatin modifiers (Example 10). It counts as cell-based, human. The settings on record: for frequency (%) of SD cells, Mean: N = 10; for replication pattern in cells derived from cancer patients: cultured cells with chromatin modifier. From the text:
(§1) Cultures were set up from 44 healthy individuals (hereafter called CON) and 20 hematological malignancy patients at diagnosis (hereafter termed CAD). For 20 of the CON samples and all of the CAD samples peripheral in addition to the setting up cultures in the regular growth medium, cultures were set up in medium containing 5-azacytidine (10^−7M; Sigma, USA; hereafter referred to as AZA) a demethylating agent. In addition, cultures from 6 CON and 10 CAD samples were set up in medium containing a deacetylating agents, either Trichostatin A (33 nM; Sigma, USA; hereafter referred to as TSA) or Sodium Butirate (1 nM; Sigma, USA; hereafter referred to as NB), two well described acetylating agents.
(§2) These samples were hybridized with two commercial probes: the AML1 probe (LSI 21, […]) and the α-satellite probe specific for centromere 17 (32-130017, hereafter marked as CEN17). The results are summarized in Table 1 giving the number of samples hybridized with each probe (N), Mean and standard deviation (stdev) as well as the p value obtained using two tailed student's t-test (Microsoft Office 98).

Assay [2] concerns CON samples (healthy individuals). The assay is described as follows: FISH replication assay, cultures of healthy individuals (CON) with chromatin modifiers (Example 10). Particulars: cultured cells with chromatin modifier. Type of assay: cell-based, human.
Source text: as §1, §2

Assay [3] relates to peripheral blood lymphocytes (PBL). Description: FISH replication assay on PBL of healthy donors treated with GCSF. Particulars: five days after GCSF treatment; for % SD after GCSF treatment, Average: PBL of healthy donors, n = 6 as printed; for % SD after GCSF treatment: PBL of individual healthy donors. It counts as in vivo, human. The text has this: Healthy subjects treated with GCSF. Seven first degree relatives (sibling or parent) of patients suffering from hematological malignancies who were candidates for donating peripheral blood stem cells agreed to participate in the study. PBL were collected before treatment with GCSF and five days after treatment, on the day of collecting cells for transplantation. Six donors were male, one female.
Comparison of synchrony in healthy subjects, cancer patients and GCSF-treated healthy donors. Bone marrow and PBL samples were obtained with informed consent from healthy control subjects and patients as detailed hereinabove. Samples were analyzed by FISH as described hereinabove.
It is believed that the SD cell percentage values are enhanced for a limited time and return to normal after cessation of GCSF treatment. The samples tested here were obtained five days after GCSF treatment. This period is usually chosen for obtaining cells for transplantation, because at the effect of GCSF is maximal five days after administration.

Regarding `CCCC(=O)[O-].[Na+]` [NB, Sodium Butirate], the “frequency (%) of SD cells, Mean” value in assay [1] (AML1 locus, CAD + NB (1 nM)) was “Mean = 23.2%”; in assay [1] (CEN17 locus, CAD + NB (1 nM)), “Mean = 19.6%”. In assay [1], the “replication pattern in cells derived from cancer patients” value is listed as “attenuate the replication pattern presented in cells derived from cancer patients towards the normal”. Further, the “replication pattern observed in normal genomes” value in assay [2] is “not affecting”.
With `CC(/C=C/C(=O)NO)=C\[C@@H](C)C(=O)c1ccc(N(C)C)cc1` [TSA, Trichostatin A], the “frequency (%) of SD cells, Mean” value in assay [1] (AML1 locus, CAD + TSA (33 nM)) was “Mean = 24.2%”; in assay [1] (CEN17 locus, CAD + TSA (33 nM)), “Mean = 20.3%”. The “replication pattern in cells derived from cancer patients” value in assay [1] is on record as “attenuate the replication pattern presented in cells derived from cancer patients towards the normal”. The “replication pattern observed in normal genomes” value in assay [2] is given as “not affecting”.

B1: GCSF: hematopoietic growth factor given to donors of bone marrow cells to enhance the number of stem cells (protein, UniProt P09919 31-207, looked up)
Granulocyte …: TPLGPASSLPQSFLLKCLEQVRKIQGDGAALQEKLVSECATYKLCHPEELVLLGHSLGIPWAPLSSCPSQALQLAGCLSQLHSGLFLYQGLLQALEGISPELGPTLDTLQLDVADFATTIWQQMEELGMAPALQPTQGAMPAFASAFQRRAGGVLVASHLQSFLEVSYRVLRHLAQP
Turning to B1, in assay [3] (21q22 probe (D21S55)), the “% SD after GCSF treatment, Average” value turned out to be 35.42%; the “% SD after GCSF treatment” value was 32% and 43% and 39% (2×) and 31% and 29% and 35%. In assay [3] (TP53 probe), the “% SD after GCSF treatment, Average” value is reported as 36.57%; the “% SD after GCSF treatment” value was 34% (2×) and 41% and 38% and 36% (2×) and 37%.
